Structures are written as SMILES.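 48-hour exposure; five concentrations; linearly interpolated endpoints. TGI denotes the concentration required for complete inhibition of growth.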 Bounds are passed on as bounds.

Holding throughout (assay): growth of human tumour cells (NCI), 48 h
In assay [1] the test system is K-562 leukemia.
Assay [2] has as its system OVCAR-4 ovarian.
The test system of assay [3] is SK-OV-3 ovarian.
The test system of assay [4] is KM12 colon.
Assay [5] concerns SR leukemia.
Assay [6] deals with MOLT-4 leukemia.
The subject of assay [7] is HL-60(TB) leukemia.
For assay [8], the system named is U251 CNS.
Assay [9] concerns OVCAR-8 ovarian.
The test system of assay [10] is SK-MEL-2 melanoma.

Consider `Cc1nn(C)c2c1C(=O)N(C)CC(=O)N2C`, for which the TGI in assay [1], in assay [2], in [3], in assay [4], in assay [5] and in assay [6] was above 100 µM in each case. For the same molecule, the TGI in [7], in assay [8] and in [9] was above 100 µM throughout.
Turning to `Cc1nc2c(ncn2CCO)c(=O)[nH]1`, the TGI in assay [1], in [2], in assay [3], in [4], in [5] and in assay [7] was above 100 µM in each case. In addition, the TGI in [8] and in [9] was above 100 µM each time.
Regarding `CC[C@@]1(O)C(=O)OCc2c1cc1n(c2=O)Cc2c-1nc1ccccc1c2/C=N\NC(=O)C(C)N` (some centres not stated), the TGI in assay [2] was above 100 µM; in assay [4], above 100 µM; in [5], 0.119 µM; in [6], 2.08 µM; in assay [7], above 100 µM; in assay [8], 31.6 µM. The TGI was 5.26 µM in assay [9] and above 100 µM in assay [10].
Turning to `COc1cc(C=O)c(-c2cc3c(cc2C=O)OCO3)c(OC)c1OC`, the TGI was above 290 µM in [1]; above 290 µM in assay [3]; 159 µM in assay [4]; above 290 µM in assay [5]; above 290 µM in [6]; above 290 µM in assay [7]. Besides, the TGI in assay [8] was above 290 µM; in assay [9], above 290 µM; in assay [10], 190 µM.
Take `O=C1NN(c2ccccc2)C(=O)C2C3c4ccccc4C(c4ccccc43)C12` (configuration not stated): the TGI in assay [1], in [2], in assay [3], in assay [4], in assay [5] and in [8] was above 100 µM throughout. Also, the TGI in assay [9] and in [10] was above 100 µM in each case.
In the case of `CCNc1ncnc2n[nH]nc12`, the TGI in [1], in assay [2], in assay [3], in assay [4], in [6] and in [7] was above 100 µM throughout. For the same molecule, the TGI in [8], in assay [9] and in assay [10] was above 100 µM each time.
As for `CCNCCNC(=O)c1ccc(Br)cc1`, the TGI in assay [1], in [2], in [3], in assay [4], in assay [5] and in assay [6] was above 100 µM throughout. In addition, the TGI in [7], in assay [8] and in assay [9] was above 100 µM in each case.
With `CC(=O)OCc1cn(S(=O)(=O)c2ccc(C)cc2)cn1`, the TGI in assay [1], in assay [2], in assay [3], in assay [5], in assay [6] and in assay [7] was above 100 µM each time. The TGI in [8] and in [9] was above 100 µM each time.
Take `CN1CCN(c2ccc(-n3cc(C(=O)O)c(=O)c4cc(F)c(N5CCN(C)CC5)cc43)nc2)CC1`: the TGI in [1], in assay [2], in assay [3], in assay [4], in assay [5] and in [6] was above 100 µM throughout. The TGI in [7], in [8] and in [9] was above 100 µM each time.
For the molecule `C[C@]12CCC(=O)C=C1CC[C@@H]1C2CC[C@]2(C)Nc3c(ncn3-c3ccc(F)cc3)CC12` (some centres not stated), the TGI in [1] is 69 µM; in assay [2] it was above 100 µM; in assay [3], above 100 µM; in assay [4] it was 85.9 µM; in assay [5] it was 29.9 µM; in [6], 90.8 µM. Besides, the TGI in assay [7] is above 100 µM; in assay [8], 95.9 µM; in assay [9], above 100 µM.
Turning to `CCOP(=O)(OCC)/C(C#N)=C/c1c(C)[nH]c2ccccc12`, the TGI in assay [1], in assay [2], in assay [3], in [4], in [5] and in assay [6] was above 100 µM in each case. For the same molecule, the TGI in assay [7], in [8] and in assay [9] was above 100 µM each time.
For `CCN(CC)c1nc(N(C)C)c2cc(OC)ccc2n1`, the TGI was above 100 µM in assay [1]; above 100 µM in [2]; above 100 µM in assay [4]; 76.9 µM in [5]; 65.1 µM in [6]; 67 µM in assay [7]. Moreover, the TGI in assay [8], in assay [9] and in assay [10] was above 100 µM in each case.
Take `O=C(c1ccccc1)c1c(CNCc2ccccc2)n(C(=O)c2ccccc2)c2ccccc12`: the TGI in assay [1] is above 100 µM; in assay [2], above 100 µM; in assay [4] it was 87.8 µM; in [5], 80.7 µM; in assay [6] it was 65.5 µM; in assay [7], 98.7 µM. Further, the TGI in assay [8], in assay [9] and in [10] was above 100 µM in each case.
Regarding `c1ccc2c(c1)C(=Nc1ccc(N=C3c4ccccc4-c4ccccc43)cc1)c1ccccc1-2`, the TGI in assay [1], in assay [2], in assay [3], in [4], in assay [6] and in assay [7] was above 100 µM each time. Also, the TGI in assay [8], in assay [9] and in assay [10] was above 100 µM each time.

Source of the values: PubChem BioAssay (NCI).
